In patent US4234579A, “Penicillanic acid 1,1-dioxides as β-lactamase inhibitors” (priority 1979, dated 1980):
In brackets after ≈: the same amount, converted by molar mass. Like-named read-outs stand apart in the source and are kept apart here.

Experiments:
[1] = test system: Staphylococcus aureus; assay: Mode MIC of antibiotic and PA 1,1-Dioxide alone and in combination; type: cell-based; conditions: for MIC: Staphylococcus aureus, 18 h, read-out: Mode MIC alone; for Mode MIC's of Cefazolin and PA 1,1-Dioxide in Combination: Cefazolin + PA 1,1-Dioxide in combination
Source text: (§1) As indicated hereinbefore, the compounds of formula I, wherein R^1 is hydrogen or an ester-forming residue readily hydrolyzable in vivo, are antibacterial agents of medium potency. […] The procedure which is followed is the one recommended by the International Collaborative Study on Antibiotic Sensitivity Testing (Ericcson and Sherris, Acta. Pathologica et Microbiologia Scandinav, Supp. 217, Section B: 64-68 [1971]), and employs brain heart infusion (BHI) agar and the inocula replicating device. Overnight growth tubes are diluted 100 fold for use as the standard inoculum (20,000-10,000 cells in approximately 0.002 ml. are placed on the agar surface; 20 ml. of BHI agar/dish). Twelve 2 fold dilutions of the test compound are employed, with initial concentration of the test drug being 200 mcg./ml. Single colonies are disregarded when reading plates after 18 hrs. at 37° C. The susceptibility (MIC) of the test organism is accepted as the lowest concentration of compound capable of producing complete inhibition of growth as judged by the naked eye.
(§2) The manner in which the said compounds of the formula I increase the effectiveness of a β-lactam antibiotic can be appreciated by reference to experiments in which the MIC of a given antibiotic alone, and a compound of the formula I wherein R^1 is hydrogen, alone, are measured. These MIC's are then compared with the MIC values obtained with a combination of the given antibiotic and the compound of the formula I wherein R^1 is hydrogen. […] The MIC values of combinations are measured using the method described by Barry and Sabath in "Manual of Clinical Microbiology", edited by Lenette, Spaulding and Truant, 2nd Edition, 1974, American Society for Microbiology.
(§3) From Table II, it can be seen that against 19 ampicillin-resistant strains of Staphylococcus aureus, the mode MIC of ampicillin, and of penicillanic acid 1,1-dioxide, is 200 mcg./ml. […] The other entries in Table II show enhancement of the antibacterial effectiveness of ampicillin against 26 ampicillin resistant strains of Haemophilus influenzae, 18 ampicillin resistant strains of Klebsiella pneumoniae, and 15 strains of the anerobe Bacteroides fragilis. Tables III, IV and V show enhancement of the antibacterial potency of benzylpenicillin (penicillin G) carbenicillin (α-carboxybenzylpenicillin) and cefazolin, respectively, against strains of S. aureus, H. influenzae, K. pneumoniae and Bacteroides fragilis.

[2] = test system: Bacteroides fragilis; assay: as above; type: cell-based; conditions: for MIC: Bacteroides fragilis, 18 h, read-out: Mode MIC alone; for Mode MIC's of Cefazolin and PA 1,1-Dioxide in Combination: Cefazolin + PA 1,1-Dioxide in combination
Source text: as §1, §2, §3

[3] = test system: Klebsiella pneumoniae; assay: as above; type: cell-based; conditions: for MIC: Klebsiella pneumoniae, 18 h, read-out: Mode MIC alone; for Mode MIC's of Cefazolin and PA 1,1-Dioxide in Combination: Cefazolin + PA 1,1-Dioxide in combination
Source text: as §1, §2, §3

[4] = test system: Haemophilus influenzae; assay: as above; type: cell-based; conditions: for MIC: Haemophilus influenzae, 18 h, alone; for Mode MIC's of Cefazolin and PA 1,1-Dioxide in Combination: Cefazolin + PA 1,1-Dioxide in combination
Source text: as §1, §2, §3

[5] = test system: microbial β-lactamases; assay: Inhibition of microbial β-lactamases; type: biochemical; conditions: result in words
[6] = test system: many microorganisms, particularly those which produce a β-lactamase; assay: Enhancement of antibacterial effectiveness of β-lactam antibiotics (combination MIC); type: cell-based; conditions: result in words; combination with β-lactam antibiotic
Description: as §2

[7] = test system: Neisseria gonorrhoeae; assay: In vitro antibacterial activity (MIC), Table I; type: cell-based; conditions: BHI agar, 18 hrs. at 37° C.
Source text: as §1

[8] = test system: Pseudomonas putida; assay: In vitro antibacterial activity (MIC), Table I; type: cell-based; conditions: BHI agar, 18 hrs. at 37° C.
Source text: as §1

[9] = test system: Streptococcus faecalis; assay: In vitro antibacterial activity (MIC), Table I; type: cell-based; conditions: Enterococcus faecalis; BHI agar, 18 hrs. at 37° C.
Source text: as §1

[10] = test system: Hemophilus influenzae; assay: In vitro antibacterial activity (MIC), Table I; type: cell-based; conditions: Haemophilus influenzae; BHI agar, 18 hrs. at 37° C.
Source text: as §1

[11] = test system: Staphylococcus epidermis; assay: In vitro antibacterial activity (MIC), Table I; type: cell-based; conditions: BHI agar, 18 hrs. at 37° C.
Source text: as §1

[12] = test system: Proteus morgani; assay: In vitro antibacterial activity (MIC), Table I; type: cell-based; conditions: BHI agar, 18 hrs. at 37° C.
Source text: as §1

[13] = test system: Staphylococcus aureus; assay: In vitro antibacterial activity (MIC), Table I; type: cell-based; conditions: BHI agar, 18 hrs. at 37° C.
Source text: as §1

[14] = test system: Providencia; assay: In vitro antibacterial activity (MIC), Table I; type: cell-based; conditions: BHI agar, 18 hrs. at 37° C.
Source text: as §1

[15] = test system: Salmonella typhimurium; assay: In vitro antibacterial activity (MIC), Table I; type: cell-based; conditions: Salmonella enterica, BHI agar, 18 hrs. at 37° C.
Source text: as §1

[16] = test system: Pasteurella multocida; assay: In vitro antibacterial activity (MIC), Table I; type: cell-based; conditions: BHI agar, 18 hrs. at 37° C.
Source text: as §1

[17] = test system: Streptococcus pyogenes; assay: In vitro antibacterial activity (MIC), Table I; type: cell-based; conditions: BHI agar, 18 hrs. at 37° C.
Source text: as §1

[18] = test system: Enterobacter clocae; assay: In vitro antibacterial activity (MIC), Table I; type: cell-based; conditions: BHI agar, 18 hrs. at 37° C.
Source text: as §1

[19] = test system: Citrobacter freundii; assay: In vitro antibacterial activity (MIC), Table I; type: cell-based; conditions: BHI agar, 18 hrs. at 37° C.
Source text: as §1

[20] = test system: Escherichia coli; assay: In vitro antibacterial activity (MIC), Table I; type: cell-based; conditions: BHI agar, 18 hrs. at 37° C.
Source text: as §1

[21] = test system: Serratia marcescens; assay: In vitro antibacterial activity (MIC), Table I; type: cell-based; conditions: BHI agar, 18 hrs. at 37° C.
Source text: as §1

[22] = test system: Enterobacter aerogenes; assay: In vitro antibacterial activity (MIC), Table I; type: cell-based; conditions: Klebsiella aerogenes; BHI agar, 18 hrs. at 37° C.
Source text: as §1

[23] = test system: Klebsiella pneumoniae; assay: In vitro antibacterial activity (MIC), Table I; type: cell-based; conditions: BHI agar, 18 hrs. at 37° C.
Source text: as §1

[24] = test system: Proteus mirabilis; assay: In vitro antibacterial activity (MIC), Table I; type: cell-based; conditions: BHI agar, 18 hrs. at 37° C.
Source text: as §1

[25] = test system: Pseudomonas aeruginosa; assay: In vitro antibacterial activity (MIC), Table I; type: cell-based; conditions: BHI agar, 18 hrs. at 37° C.
Source text: as §1

## Cc1nnc(SCC2=C(C(=O)O)N3C(=O)[C@@H](NC(=O)Cn4cnnn4)[C@H]3SC2)s1 [Cefazolin, reference compound]
[1]; Table V, 20 strains, alone
  MIC: 0.78 µg/mL
[1]; Table V, 20 strains
  Mode MIC's of Cefazolin and PA 1,1-Dioxide in Combination: 0.2 µg/mL
[2]; Table V, 15 strains, alone
  MIC: 200 µg/mL
[2]; Table V, 15 strains
  Mode MIC's of Cefazolin and PA 1,1-Dioxide in Combination: 6.25 µg/mL
[3]; Table V, 3 strains, alone
  MIC: 100 µg/mL
[3]; Table V, 3 strains
  Mode MIC's of Cefazolin and PA 1,1-Dioxide in Combination: 6.25 µg/mL
[4]; Table V, 25 strains, read-out: Mode MIC alone
  MIC: 25 µg/mL
[4]; Table V, 25 strains
  Mode MIC's of Cefazolin and PA 1,1-Dioxide in Combination: 3.12 µg/mL

## CC1(C)[C@H](C(=O)O)N2C(=O)C[C@H]2S1(=O)=O [Penicillanic Acid 1,1-Dioxide]
[1]
  MIC: 200 µg/mL
[1]; Table II, 19 ampicillin-resistant strains, ampicillin + PA 1,1-Dioxide in combination
  Mode MIC's of ampicillin and PA 1,1-Dioxide in combination: 3.12 µg/mL
[1]; Table III, 20 strains, alone
  Mode MIC alone: 200 µg/mL
[1]; Table III, 20 strains, penicillin G + PA 1,1-Dioxide in combination
  Mode MIC's of penicillin G and PA 1,1-Dioxide in combination: 6.25 µg/mL
[1]; Table IV, 20 strains, alone
  Mode MIC alone: 200 µg/mL
[1]; Table IV, 20 strains, carbenicillin + PA 1,1-Dioxide in combination
  Mode MIC's of carbenicillin and PA 1,1-Dioxide in combination: 6.25 µg/mL
[1]; Table V, 20 strains
  Mode MIC's of Cefazolin and PA 1,1-Dioxide in Combination: 25 µg/mL
[1]; Table V, 20 strains, alone
  Mode MIC alone: 200 µg/mL
[2]
  MIC: 50 µg/mL
[2]; Table II, 15 strains, ampicillin + PA 1,1-Dioxide in combination
  Mode MIC's of ampicillin and PA 1,1-Dioxide in combination: 0.78 µg/mL
[2]; Table III, 15 strains, alone
  Mode MIC alone: 50 µg/mL
[2]; Table III, 15 strains, penicillin G + PA 1,1-Dioxide in combination
  Mode MIC's of penicillin G and PA 1,1-Dioxide in combination: 0.39 µg/mL
[2]; Table IV, 15 strains, alone
  Mode MIC alone: 50 µg/mL
[2]; Table IV, 15 strains, carbenicillin + PA 1,1-Dioxide in combination
  Mode MIC's of carbenicillin and PA 1,1-Dioxide in combination: 0.78 µg/mL
[2]; Table V, 15 strains
  Mode MIC's of Cefazolin and PA 1,1-Dioxide in Combination: 6.25 µg/mL
[2]; Table V, 15 strains, alone
  Mode MIC alone: 50 µg/mL
[3]
  MIC: 50 µg/mL
[3]; Table II, 18 ampicillin resistant strains, ampicillin + PA 1,1-Dioxide in combination
  Mode MIC's of ampicillin and PA 1,1-Dioxide in combination: 6.25 µg/mL
[3]; Table III, 24 strains, alone
  Mode MIC alone: 50 µg/mL
[3]; Table III, 24 strains, penicillin G + PA 1,1-Dioxide in combination
  Mode MIC's of penicillin G and PA 1,1-Dioxide in combination: 12.5 µg/mL
[3]; Table IV, 16 strains, alone
  Mode MIC alone: 50 µg/mL
[3]; Table IV, 16 strains, carbenicillin + PA 1,1-Dioxide in combination
  Mode MIC's of carbenicillin and PA 1,1-Dioxide in combination: 6.25 µg/mL
[3]; Table V, 3 strains
  Mode MIC's of Cefazolin and PA 1,1-Dioxide in Combination: 25 µg/mL
[3]; Table V, 3 strains, alone
  Mode MIC alone: 50 µg/mL
[4]; read-out: Mode MIC alone, Table II, 26 ampicillin resistant strains
  MIC: > 200 µg/mL
[4]; read-out: Mode MIC alone, Table III, 25 strains
  MIC: 100 µg/mL
[4]; read-out: Mode MIC alone, Table IV, 25 strains
  MIC: 100 µg/mL
[4]; read-out: Mode MIC alone, Table V, 25 strains
  MIC: 200 µg/mL
[4]; Table II, 26 ampicillin resistant strains, ampicillin + PA 1,1-Dioxide in combination
  Mode MIC's of ampicillin and PA 1,1-Dioxide in combination: 3.12 µg/mL
[4]; Table III, 25 strains, penicillin G + PA 1,1-Dioxide in combination
  Mode MIC's of penicillin G and PA 1,1-Dioxide in combination: 1.56 µg/mL
[4]; Table IV, 25 strains, carbenicillin + PA 1,1-Dioxide in combination
  Mode MIC's of carbenicillin and PA 1,1-Dioxide in combination: 0.78 µg/mL
[4]; Table V, 25 strains
  Mode MIC's of Cefazolin and PA 1,1-Dioxide in Combination: 0.2 µg/mL
[5]
  inhibition of microbial β-lactamases: potent inhibitors of microbial β-lactamases
[6]
  enhancement of antibacterial effectiveness of β-lactam antibiotics: enhances the effectiveness of ampicillin
[7]
  MIC: 0.312 µg/mL (≈ 1.34 µM)
[8]
  MIC: > 200 µg/mL
[9]
  MIC: > 200 µg/mL
[10]
  MIC: > 50 µg/mL
[11]
  MIC: 200 µg/mL (≈ 857 µM)
[12]
  MIC: 100 µg/mL (≈ 429 µM)
[13]
  MIC: 100 µg/mL (≈ 429 µM)
[14]
  MIC: 100 µg/mL (≈ 429 µM)
[15]
  MIC: 50 µg/mL (≈ 214 µM)
[16]
  MIC: 50 µg/mL (≈ 214 µM)
[17]
  MIC: 100 µg/mL (≈ 429 µM)
[18]
  MIC: 100 µg/mL (≈ 429 µM)
[19]
  MIC: 50 µg/mL (≈ 214 µM)
[20]
  MIC: 50 µg/mL (≈ 214 µM)
[21]
  MIC: 100 µg/mL (≈ 429 µM)
[22]
  MIC: 25 µg/mL (≈ 107 µM)
[23]
  MIC: 50 µg/mL (≈ 214 µM)
[24]
  MIC: 100 µg/mL (≈ 429 µM)
[25]
  MIC: 200 µg/mL (≈ 857 µM)
